Reference: PMC13289212, “HIVIL: A human in vitro inflammatory liver model recapitulates immune-associated drug effects with high predictivity” (NAM journal, 2025)
“And” between values parts separate entries of the source, which are not always exact repeats. Equal entries are not always repeated. Where two headings read alike, the source gives them in different places.

What was measured:
[1] = system: IL-10; assay: IL-10 ELISA in HIVIL (iKCs co-cultured with iHeps, LPS, 48 hr); type: cell-based, human; conditions: result in words
Text: Human iPSC cell line iPS (IMR90)-4 was purchased from WiCell Research Institute (Madison, WI), and maintained with a feeder-free method according to the instruction from […] Technologies (Vancouver, BC, Canada). The protocol of differentiation towards iKCs and iHeps as described previously with slight modification ([Tasnim et al., 2019]; [Cai et al., 2012]), respectively. […] More details are provided in Supplementary Methods. After differentiation, iKCs was harvested using 0.05 % trypsin-EDTA (Gibco, Waltham, Massachusetts, USA), while iHeps were dissociated with TrypLE^TM (Gibco). iHep suspension was further filtered through a 40 µm cell strainer to remove extracellular matrix clumps. Cell suspension was centrifuged at 1000 rpm for 5 min. For co-culture set up, tissue culture plates were coated with Rat tail collagen I (Gibco) diluted 100-fold in 0.02 N acetic acid, and incubated at 37 °C for 1 h and washed 3 times with PBS. […]
Enzyme-linked immunosorbent assay (ELISA) for measurement of cytokines: Interleukin-6 (IL-6), interleukin-10 (IL-10) and tumor necrosis factor alpha (TNFα) levels in the media were measured using the corresponding human-based ELISA kits (Abcam, Cambridge, United Kingdom) according to manufacturer’s instructions. […]

[2] = system: TNFα; assay: TNFα ELISA in HIVIL (iKCs co-cultured with iHeps, LPS, 48 hr); type: cell-based, human; conditions: low dose 3.125 μM and 6.25 μM
Text: Human iPSC cell line iPS (IMR90)-4 was purchased from WiCell Research Institute (Madison, WI), and maintained with a feeder-free method according to the instruction from […] Technologies (Vancouver, BC, Canada). The protocol of differentiation towards iKCs and iHeps as described previously with slight modification ([Tasnim et al., 2019]; [Cai et al., 2012]), respectively. […] More details are provided in Supplementary Methods. After differentiation, iKCs was harvested using 0.05 % trypsin-EDTA (Gibco, Waltham, Massachusetts, USA), while iHeps were dissociated with TrypLE^TM (Gibco). iHep suspension was further filtered through a 40 µm cell strainer to remove extracellular matrix clumps. Cell suspension was centrifuged at 1000 rpm for 5 min. For co-culture set up, tissue culture plates were coated with Rat tail collagen I (Gibco) diluted 100-fold in 0.02 N acetic acid, and incubated at 37 °C for 1 h and washed 3 times with PBS. According to the protocol optimized by [Tasnim et al. (2019)], iKCs was firstly seeded at a density of 14,000 per well on 96-well plate with Advanced DMEM (plus supplements) containing 5 % FBS. On the following day, iHeps were added at a density of 35,000 per well in Williams’ Medium E (plus supplements) (iHep: iKCs ratio = 2.5: 1). This reflects the physiological ratio of these cells in vivo under inflammatory conditions ([Tasnim et al., 2021]). Fresh media containing drugs was applied to co-cultures the next day. 50,000 cells were seeded to establish iHeps monoculture. THP-1 cells were kindly obtained from Dr. Eliza Fong and cultured as described by [Zeng et al. (2015)]. Details provided in Supplementary Methods.
(§1) Stock solutions of drugs were prepared in dimethyl sulfoxide (DMSO) and dissolved in medium prior to use. […] For these two drugs, the highest DMSO concentration was 1 %. Supernatant was collected at 48 hr for measurement of cytokines, and remaining cells were subjected to viability assay prior to lysis for RNA extraction.
Enzyme-linked immunosorbent assay (ELISA) for measurement of cytokines: Interleukin-6 (IL-6), interleukin-10 (IL-10) and tumor necrosis factor alpha (TNFα) levels in the media were measured using the corresponding human-based ELISA kits (Abcam, Cambridge, United Kingdom) according to manufacturer’s instructions. The cytokine production from dosed cells was normalized with the viability value from the same well. The normalized cytokine level upon drug treatments was further presented as percentage of DMSO+LPS. […] This normalization approach has been used in previous studies (Rose et al. 2016).

[3] = AlamarBlue cell viability in HIVIL; conditions: human
Experimental: as §1

[4] = system: HIVIL (iKCs co-cultured with iHeps); assay: AlamarBlue cell viability in HIVIL
Experimental: as §1

[5] = system: IL-6; assay: IL-6 ELISA in iPSC(F4)-derived HIVIL; type: cell-based, human
Experimental: Enzyme-linked immunosorbent assay (ELISA) for measurement of cytokines: Interleukin-6 (IL-6), interleukin-10 (IL-10) and tumor necrosis factor alpha (TNFα) levels in the media were measured using the corresponding human-based ELISA kits (Abcam, Cambridge, United Kingdom) according to manufacturer’s instructions. The cytokine production from dosed cells was normalized with the viability value from the same well. The normalized cytokine level upon drug treatments was further presented as percentage of DMSO+LPS. Normalization to viability per well ensures that any changes in cytokines are not due to changes in cell numbers upon drug treatment and normalization to DMSO+LPS allows better comparison between different batches of experiments. This normalization approach has been used in previous studies (Rose et al. 2016).

[6] = Cell viability of iHeps mono-culture; type: cell-based; conditions: human
Text: Human iPSC cell line iPS (IMR90)-4 was purchased from WiCell Research Institute (Madison, WI), and maintained with a feeder-free method according to the instruction from […] Technologies (Vancouver, BC, Canada). The protocol of differentiation towards iKCs and iHeps as described previously with slight modification ([Tasnim et al., 2019]; [Cai et al., 2012]), respectively. The re-optimized protocol to generate iKCs is discussed in Results section. More details are provided in Supplementary Methods. After differentiation, iKCs was harvested using 0.05 % trypsin-EDTA (Gibco, Waltham, Massachusetts, USA), while iHeps were dissociated with TrypLE^TM (Gibco). iHep suspension was further filtered through a 40 µm cell strainer to remove extracellular matrix clumps. Cell suspension was centrifuged at 1000 rpm for 5 min. For co-culture set up, tissue culture plates were coated with Rat tail collagen I (Gibco) diluted 100-fold in 0.02 N acetic acid, and incubated at 37 °C for 1 h and washed 3 times with PBS. According to the protocol optimized by [Tasnim et al. (2019)], iKCs was firstly seeded at a density of 14,000 per well on 96-well plate with Advanced DMEM (plus supplements) containing 5 % FBS. On the following day, iHeps were added at a density of 35,000 per well in Williams’ Medium E (plus supplements) (iHep: iKCs ratio = 2.5: 1). […]

[7] = Cammett et al. 2009, Mendes et al. 2014, cited from earlier work
[8] = system: IL-6; set-up: method as in ref Hassan et al. 2016; Giustarini et al. 2019; Higuchi et al. 2012; Dik et al. 2018; conditions: ref Hassan et al. 2016; Giustarini et al. 2019; Higuchi et al. 2012; Dik et al. 2018; cited from earlier work
[9] = system: TNFα; conditions: ref Shaw et al. 2010; Zou et al. 2009; Bekker et al. 2012; Gandhi et al. 2013; Heidari et al. 2019; cited from earlier work
[10] = FDA-labeling information; ref Chen et al. 2016; cited from earlier work

For `N[C@@H]1[C@H]2CN(c3nc4c(cc3F)c(=O)c(C(=O)O)cn4-c3ccc(F)cc3F)C[C@@H]12` [TVX, Trovafloxacin], the IL-10 response [1] was “dose-dependent IL-10 decrease”, the TNFα induction [2] was 1.5 fold and the viability at 48 hr [3] was 63.4 ± 5%. The IC50 ([4]; Homo sapiens, 48 h, read-out: IC50: viability) was 87.7 µM, the “viability profiles among iHeps, iKCs and HIVIL” value ([4]; comparison of mono-cultures and co-culture) was “similar” and the “increase in IL-6” value ([5]; 6.25 μM) was 1.2 fold. For the same compound, the “inhibition of IL-6 production” value ([5]; higher concentrations) was 80% and 97%, the viability [6] was 53.7% and the Cmax ([7]; ref in each cell: Ademisoye et al. 2018, Xu et al. 2008, Agabeyoglu and Incecayir 2009, Rojanasthien et al. 2007, Reunanen et al. 1992, Li et al. 2002, Hong-mei et al. 2013, Bareggi et al. 1987, Jiang et al. 2008) was 5 µM. The Cmax ([7]; ref in each cell: Xu et al. 2008) was 5 µM, the “Reported in-vivo (murine) responses: IL-6” value [8] was “IL-6↑” and the “Reported in-vivo (murine) responses: TNFα” value [9] was “TNFα↑”. The DILIrank [10] was “most”.
